Columns and labels:
[1] = tested on: BXPC-3; assay: Cytotoxicity against human BxPC3 cells after 72 hrs by MTT assay; type: functional, cell-based; conditions: BXPC-3, 72 h
[2] = tested on: Plasmodium falciparum; assay: Antimalarial activity against Plasmodium falciparum W2 by hypoxanthine uptake; type: functional, organism-based
[3] = tested on: Plasmodium falciparum; assay: microbe, parasite or virus in culture; conditions: TM91C235
Description: Antimalarial activity against Plasmodium falciparum TM91C235 by hypoxanthine uptake

[4] = Cytotoxicity against human SU 86.86 cells after 72 hrs by MTT assay; type: functional, cell-based; conditions: SU.86.86, 72 h
[5] = biological target: T1, Polyamine deacetylase HDAC10 (Homo sapiens, UniProt Q969S8)
T1 sequence (Q969S8 whole entry): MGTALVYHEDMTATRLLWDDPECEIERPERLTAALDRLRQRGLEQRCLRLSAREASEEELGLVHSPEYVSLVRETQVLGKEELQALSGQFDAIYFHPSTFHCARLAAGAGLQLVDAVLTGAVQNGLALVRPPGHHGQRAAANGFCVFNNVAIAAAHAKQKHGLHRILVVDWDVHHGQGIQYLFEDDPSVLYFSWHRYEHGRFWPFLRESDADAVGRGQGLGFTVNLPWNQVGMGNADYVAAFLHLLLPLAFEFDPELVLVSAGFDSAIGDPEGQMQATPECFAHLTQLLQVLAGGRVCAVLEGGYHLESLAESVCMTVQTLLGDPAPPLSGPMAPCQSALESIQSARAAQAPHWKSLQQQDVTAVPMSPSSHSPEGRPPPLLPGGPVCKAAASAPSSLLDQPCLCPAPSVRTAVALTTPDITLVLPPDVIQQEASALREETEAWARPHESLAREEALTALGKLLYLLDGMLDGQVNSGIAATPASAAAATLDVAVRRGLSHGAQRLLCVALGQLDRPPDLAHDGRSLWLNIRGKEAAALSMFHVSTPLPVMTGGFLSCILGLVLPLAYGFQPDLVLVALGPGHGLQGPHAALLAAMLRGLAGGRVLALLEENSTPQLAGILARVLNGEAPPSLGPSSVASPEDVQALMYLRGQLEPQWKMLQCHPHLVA

[6] = Cytotoxicity against human Hup T3 cells after 72 hrs by MTT assay; type: functional, cell-based; conditions: HuP-T3, 72 h
[7] = biological target: Histone deacetylase 1 (Homo sapiens, UniProt Q13547)
[8] = biological target: Histone deacetylase 2 (Homo sapiens, UniProt Q92769)
[9] = tested on: Plasmodium falciparum; assay: Antimalarial activity against Plasmodium falciparum D6 by hypoxanthine uptake; type: functional, organism-based
[10] = Cytotoxicity against human Panc 04.03 cells after 72 hrs by MTT assay; type: functional, cell-based; conditions: Panc 04.03, 72 h
[11] = Selectivity for HDAC10 over HDAC1
[12] = tested on: MIA PaCa-2; assay: Cytotoxicity against human Mia Paca2 cells after 72 hrs by MTT assay; type: functional, cell-based; conditions: MIA PaCa-2, 72 h
[13] = biological target: T2, Protein deacetylase HDAC6 (Homo sapiens, UniProt Q9UBN7)
T2 sequence (Q9UBN7 whole entry): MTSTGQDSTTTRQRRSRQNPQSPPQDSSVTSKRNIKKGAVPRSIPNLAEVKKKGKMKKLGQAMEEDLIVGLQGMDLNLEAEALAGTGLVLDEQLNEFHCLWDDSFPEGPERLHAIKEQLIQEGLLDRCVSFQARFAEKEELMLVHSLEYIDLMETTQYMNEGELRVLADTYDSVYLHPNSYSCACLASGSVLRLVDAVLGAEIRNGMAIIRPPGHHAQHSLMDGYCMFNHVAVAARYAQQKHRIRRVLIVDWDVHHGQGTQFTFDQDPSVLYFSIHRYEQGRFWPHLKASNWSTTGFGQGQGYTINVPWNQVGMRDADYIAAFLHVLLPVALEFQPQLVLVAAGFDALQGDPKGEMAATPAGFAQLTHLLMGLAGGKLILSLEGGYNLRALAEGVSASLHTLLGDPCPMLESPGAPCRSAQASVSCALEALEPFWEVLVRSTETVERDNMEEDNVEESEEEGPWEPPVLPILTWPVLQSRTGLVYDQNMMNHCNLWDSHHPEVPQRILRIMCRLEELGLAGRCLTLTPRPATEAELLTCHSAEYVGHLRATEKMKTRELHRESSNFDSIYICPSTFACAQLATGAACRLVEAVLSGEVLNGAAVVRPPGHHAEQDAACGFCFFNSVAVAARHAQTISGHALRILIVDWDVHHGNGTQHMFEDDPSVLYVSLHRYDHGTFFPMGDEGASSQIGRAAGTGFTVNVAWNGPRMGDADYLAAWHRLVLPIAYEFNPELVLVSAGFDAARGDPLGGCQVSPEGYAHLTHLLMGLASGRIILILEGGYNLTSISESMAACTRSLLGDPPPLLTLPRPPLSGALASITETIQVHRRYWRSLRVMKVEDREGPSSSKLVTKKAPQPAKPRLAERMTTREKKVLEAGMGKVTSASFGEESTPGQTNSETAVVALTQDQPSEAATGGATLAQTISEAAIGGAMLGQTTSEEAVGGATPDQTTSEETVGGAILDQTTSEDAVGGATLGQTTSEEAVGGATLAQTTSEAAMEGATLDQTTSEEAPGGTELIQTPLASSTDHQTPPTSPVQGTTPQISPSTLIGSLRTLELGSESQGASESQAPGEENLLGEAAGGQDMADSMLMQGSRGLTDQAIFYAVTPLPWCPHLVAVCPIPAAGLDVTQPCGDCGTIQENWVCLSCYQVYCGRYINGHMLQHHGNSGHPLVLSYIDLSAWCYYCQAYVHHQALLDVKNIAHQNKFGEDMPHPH

[14] = tested on: Plasmodium falciparum; assay: Antimalarial activity against Plasmodium falciparum TM90C2A by hypoxanthine uptake; type: functional, organism-based
[15] = biological target: T3, Histone deacetylase 8 (Homo sapiens, UniProt Q9BY41)
T3 sequence (Q9BY41 whole entry): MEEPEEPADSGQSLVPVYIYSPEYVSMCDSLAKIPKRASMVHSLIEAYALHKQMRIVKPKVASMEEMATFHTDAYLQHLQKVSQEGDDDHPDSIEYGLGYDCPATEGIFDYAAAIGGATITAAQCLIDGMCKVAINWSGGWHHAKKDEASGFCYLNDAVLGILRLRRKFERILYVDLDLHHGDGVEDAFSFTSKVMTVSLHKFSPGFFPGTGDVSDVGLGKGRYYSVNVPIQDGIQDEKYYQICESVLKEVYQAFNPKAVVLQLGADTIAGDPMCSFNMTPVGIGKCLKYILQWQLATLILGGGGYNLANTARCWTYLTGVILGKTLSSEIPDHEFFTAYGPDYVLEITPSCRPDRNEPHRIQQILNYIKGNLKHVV

[16] = biological target: Histone deacetylase 3 (Homo sapiens, UniProt O15379)
Histone deacetylase 3, sequence (O15379 whole entry): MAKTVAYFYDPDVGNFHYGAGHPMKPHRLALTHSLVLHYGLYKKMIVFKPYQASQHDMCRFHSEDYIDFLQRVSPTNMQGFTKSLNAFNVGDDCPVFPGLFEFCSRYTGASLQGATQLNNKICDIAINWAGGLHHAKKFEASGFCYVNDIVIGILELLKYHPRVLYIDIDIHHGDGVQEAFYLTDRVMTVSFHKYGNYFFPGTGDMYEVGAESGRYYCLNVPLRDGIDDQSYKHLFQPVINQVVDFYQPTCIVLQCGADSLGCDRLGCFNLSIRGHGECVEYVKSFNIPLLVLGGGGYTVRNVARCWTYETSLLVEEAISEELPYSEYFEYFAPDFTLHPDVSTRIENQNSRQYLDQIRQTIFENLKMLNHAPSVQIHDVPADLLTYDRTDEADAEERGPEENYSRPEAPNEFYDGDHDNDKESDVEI

Histone deacetylase 2, sequence (Q92769 whole entry): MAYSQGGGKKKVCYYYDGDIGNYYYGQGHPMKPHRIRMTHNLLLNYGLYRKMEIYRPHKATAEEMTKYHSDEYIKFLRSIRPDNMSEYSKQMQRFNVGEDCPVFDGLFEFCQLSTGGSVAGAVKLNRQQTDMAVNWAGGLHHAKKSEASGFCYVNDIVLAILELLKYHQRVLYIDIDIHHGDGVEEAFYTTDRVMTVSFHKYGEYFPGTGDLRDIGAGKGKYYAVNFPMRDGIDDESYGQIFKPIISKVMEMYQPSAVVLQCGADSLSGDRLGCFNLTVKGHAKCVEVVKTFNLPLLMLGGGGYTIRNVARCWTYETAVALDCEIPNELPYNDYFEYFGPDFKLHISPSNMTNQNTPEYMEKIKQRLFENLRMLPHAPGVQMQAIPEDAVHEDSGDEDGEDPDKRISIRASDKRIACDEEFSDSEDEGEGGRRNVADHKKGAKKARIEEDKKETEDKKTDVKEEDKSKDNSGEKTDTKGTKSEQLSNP
Histone deacetylase 1, sequence (Q13547 whole entry): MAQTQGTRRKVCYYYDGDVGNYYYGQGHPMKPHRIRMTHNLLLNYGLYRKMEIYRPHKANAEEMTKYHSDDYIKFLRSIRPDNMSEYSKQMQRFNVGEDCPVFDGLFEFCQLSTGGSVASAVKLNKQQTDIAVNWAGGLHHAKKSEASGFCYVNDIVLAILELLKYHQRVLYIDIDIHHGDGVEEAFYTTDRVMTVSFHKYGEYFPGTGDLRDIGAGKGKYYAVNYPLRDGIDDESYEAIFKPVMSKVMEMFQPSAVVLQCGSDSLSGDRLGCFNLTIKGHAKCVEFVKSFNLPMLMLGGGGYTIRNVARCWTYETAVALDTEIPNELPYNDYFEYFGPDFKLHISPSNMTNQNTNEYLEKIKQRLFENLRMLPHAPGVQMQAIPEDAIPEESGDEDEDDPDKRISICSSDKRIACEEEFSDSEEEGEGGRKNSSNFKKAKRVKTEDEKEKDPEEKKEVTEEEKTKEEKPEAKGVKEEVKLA

Row | IC50 [5] [nM] | IC50 [7] [nM] | IC50 [8] [nM] | Ratio IC50 [11] | IC50 [13] [nM] | IC50 [15] [nM] | Compound | IC50 [1] [µM] | IC50 [2] [nM] | IC50 [3] [nM] | IC50 [4] [µM] | IC50 [6] [µM] | IC50 [9] [nM] | IC50 [10] [nM] | IC50 [12] [µM] | IC50 [14] [nM] | IC50 [16] [nM]
1 | 188 | 113 | 679 | 0.6 | 4.8 | 3970 | O=C(CCCCCCC(=O)Nc1ccc(-c2cn(Cc3ccccc3)nn2)cc1)NO | 9 | 530 | 300 | 10 | 5 | 210 | 2000 | < 1 | 160 | 
2 | 86.5 | 69.2 | 143 | 0.8 | 4.4 | 3130 | O=C(CCCCCCC(=O)Nc1ccc(-c2cn(CC(O)c3cccc(Br)c3)nn2)cc1)NO (centres undefined) | 18 | 390 | 110 | 12 | 12 | 80 | 10000 | 0.6 | 190 | 25.3
3 | 70.1 | 68.3 | 124 | 1 | 3.1 | 790 | O=C(CCCCCCC(=O)Nc1ccc(-c2cnnn2Cc2ccccc2)cc1)NO | 11 | > 1200 | 520 | 9 | 5 | 400 | 2000 | 2 | 300 | 9.7
4 | 112 | 97.8 | 294 | 0.9 | 1.9 | 797 | O=C(CCCCCCC(=O)Nc1ccc(-c2cn(Cc3ccc(F)cc3)nn2)cc1)NO | 22 |  |  | 11 | 4 |  | 3000 | < 0.5 |  | 13.7

Further lines, the molecule ahead of its results:

Row | Compound | IC50 [5] [nM] | IC50 [7] [nM] | IC50 [8] [nM] | Ratio IC50 [11] | IC50 [13] [nM] | IC50 [15] [nM] | IC50 [1] [µM] | IC50 [2] [nM] | IC50 [3] [nM] | IC50 [4] [µM] | IC50 [6] [µM] | IC50 [9] [nM] | IC50 [10] [nM] | IC50 [12] [µM] | IC50 [14] [nM] | IC50 [16] [nM]
5 | O=C(CCCCCCC(=O)Nc1cccc(-c2cnnn2CC(O)c2cccc(Br)c2)c1)NO (centres undefined) | 15.8 | 23.4 | 116 | 1.5 | 2.8 | 406 | 43 | 380 | 390 | 23 | 42 | 180 | 25000 | 11 | 120 | 4.2
6 | O=C(CCCCCCC(=O)Nc1cccc(-c2cn(Cc3ccccc3)nn2)c1)NO | 18.5 | 14.5 | 43 | 0.8 | 3.1 | 1990 | 3 | 160 | 220 | 2 | 1 | 140 | 2000 | < 0.5 | 190 | 7.9
7 | O=C(CCCCCCC(=O)Nc1ccc(-c2cnnn2CC(O)c2cccc(Br)c2)cc1)NO (centres undefined) | 74.8 | 69.9 | 216 | 0.9 | 4.2 | 737 | 25 | > 950 | 390 | 42 | 46 | 230 | 44000 | 37 | 230 | 15.1
8 | O=C(CCCCCCC(=O)Nc1ccc(-c2cnnn2Cc2ccc(F)cc2)cc1)NO | 64.7 | 52.4 | 57.4 | 0.8 | 7.3 | 2010 | 11 | 460 | 290 | 10 | 4 | 240 | 2000 | 8 | 120 | 16.4
9 | O=C(CCCCCCC(=O)Nc1ccc(-c2cnnn2-c2ccccc2)cc1)NO | 55.7 | 70.5 | 146 | 1.3 | 3.5 | 518 | 13 | 620 | 470 | 11 | 10 | 350 | 8000 | 8 | 170 | 12

— ChEMBL document CHEMBL1150413, “A series of potent and selective, triazolylphenyl-based histone deacetylases inhibitors with activity against pancreatic cancer cells and Plasmodium falciparum” (J Med Chem, 2008)
